Source: patent US20050101595A1, “N-containing cycloalkyl-substituted amino-thiazole derivatives and pharmaceutical compositions for inhibiting cell proliferation and methods for their use” (PFIZER INC., priority 2003, published 2005)
Structures can show the parent of a compound that is named as a salt. Where two headings read alike, the source gives them in different places.

Tests used:
HCT-116 cell line = experiment: Inhibition of cell growth, tetrazolium salt (MTT) assay; type: cell-based; details: for IC50: Homo sapiens, HCT-116, 120 h, MTT, three to five days, read-out: HCT-116 IC50; for HCT-116 % Inhibition at 0.25 μM: 0.25 μM compound
Summary of the method: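 McCoy's 5A cultures; 4 h pre-incubation; compound dilutions in 0.5% v/v DMSO; 3–5 d, 37° C, 5% CO2; MTT 0.2 mg/mL final, 4 h; formazan dissolved in DMSO, A540; vs 0.5% DMSO vehicle.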

CDK2/Cyclin A = CDK2/Cyclin A (Homo sapiens, UniProt P24941); experiment: Inhibition of CDK2/Cyclin A Retinoblastoma Kinase Activity; type: biochemical; details: for Ki: apparent Ki, CDK2/proteolyzed cyclin A, Rb fragment substrate, 25 μM ATP
Summary of the method: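 Human CDK2, baculovirus/insect-cell expressed, complexed with proteolyzed cyclin A (10 nM or 19 nM CDK2) phosphorylates an Rb fragment with 25 μM [32P/33P]ATP at pH 7.4, 30° C, for 60 or 75 minutes under initial-rate conditions. Filter-captured radioactivity is read by phosphorimager; apparent Ki from competitive-inhibition fits.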

[1] = molecular target: human CDK4 and genetically truncated (1-264) cyclin D3 (Homo sapiens, UniProt P11802); experiment: Inhibition of CDK4/Cyclin D Retinoblastoma Kinase Activity; type: biochemical; details: for Ki: apparent Ki, CDK4/truncated cyclin D3, Rb fragment substrate, 25 μM ATP
Summary of the method: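 Read-out: 32P/33P incorporation into Rb fragment (386-928) captured on nitrocellulose, phosphorimager. Enzyme 5 nM CDK4/cyclin D3(1-264) from insect cells; ATP 25 μM, pH 7.4, 30 °C, 20 min (60 min for tight binders). Ki from competitive fits.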

Chain of human CDK4 and genetically truncated (1-264) cyclin D3 (P11802 whole entry, the tested form may be a part): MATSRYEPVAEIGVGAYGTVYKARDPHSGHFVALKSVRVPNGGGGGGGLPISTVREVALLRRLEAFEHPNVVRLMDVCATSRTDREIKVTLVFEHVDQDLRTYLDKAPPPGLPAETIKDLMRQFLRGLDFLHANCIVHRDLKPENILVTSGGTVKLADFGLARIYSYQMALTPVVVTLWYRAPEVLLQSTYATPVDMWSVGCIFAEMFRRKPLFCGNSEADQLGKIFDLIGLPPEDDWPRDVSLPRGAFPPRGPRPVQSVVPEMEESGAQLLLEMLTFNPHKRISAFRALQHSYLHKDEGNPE
Chain of human CDK4 and genetically truncated (1-264) cyclin D3 (P30281 1-264 partner): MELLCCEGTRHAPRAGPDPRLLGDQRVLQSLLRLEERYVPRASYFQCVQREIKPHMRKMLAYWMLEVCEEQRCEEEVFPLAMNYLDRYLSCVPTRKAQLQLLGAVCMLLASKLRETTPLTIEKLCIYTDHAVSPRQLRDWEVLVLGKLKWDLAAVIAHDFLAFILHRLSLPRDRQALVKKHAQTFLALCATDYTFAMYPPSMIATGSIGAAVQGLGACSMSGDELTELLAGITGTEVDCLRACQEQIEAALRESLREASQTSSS

Compound	IC50 (HCT-116 cell line; first HCT-116 column (c4)) [nM]	IC50 (HCT-116 cell line; second HCT-116 column (c5)) [nM]	Ki (CDK2/Cyclin A) [nM]	Ki [1] [nM]	CDK2 % Inhibition at 0.03 μM (CDK2/Cyclin A; at 0.03 μM) [%]	CDK4 % Inhibition at 0.03 μM ([1]; at 0.03 μM) [%]	HCT-116 % Inhibition at 0.1 μM (HCT-116 cell line; HCT-116 cells, at 0.1 μM) [%]	HCT-116 5 Inhibition at 0.25 μM (HCT-116 cell line; HCT-116 cells)	other results
Nc1ccc(S(=O)(=O)N2CCC(Nc3nc(N)c(C(=O)c4c(F)cccc4F)s3)CC2)cn1 [Example G8, 1-{4-Amino-2-[1-(6-amino-pyridine-3-sulfonyl)-piperidin-4-ylamino]-thiazol-5-yl}-1-(2,6-difluoro-phenyl)-methanone]	590	2200	0.6	1.9	–	–	–	–	–
CC(C)=CCCC(C)CC(=O)N1CCC(Nc2nc(N)c(C(=O)c3c(F)cccc3F)s2)CC1 (centres unmarked) [Example R170]	–	–	–	–	21	22	0	23	–
CN(C)CCc1ccc(S(=O)(=O)N2CCC(Nc3nc(N)c(C(=O)c4c(F)cccc4F)s3)CC2)cn1 [Example N11, (4-Amino-2-{1-[6-(2-dimethylamino-ethyl)-pyridine-3-sulfonyl]-piperidin-4-ylamino}-thiazol-5-yl)-(2,6-difluoro-phenyl)-methanone TFA Salt.]	140	1600	1.6	0.39	–	–	–	–	–
CCCSc1ncccc1C(=O)N1CCC(Nc2nc(N)c(C(=O)c3c(F)cccc3F)s2)CC1 [Example R28]	–	–	–	–	58	66	0	41	–
N#Cc1ccc(S(=O)(=O)N2CCC(Nc3nc(N)c(C(=O)c4c(F)cccc4F)s3)CC2)cc1 [Example P47]	–	–	–	–	–	–	–	–	HCT-116 % Inhibition at 0.1 μM (HCT-116 cell line; 0.1 μM compound, HCT-116, Table 3): 0%; HCT-116 % Inhibition at 0.25 μM (HCT-116 cell line; HCT-116, Table 3): 26%; CDK2 % Inhibition at 0.03 μM (CDK2/Cyclin A; 0.03 μM compound, Table 3): 81%; CDK4 % Inhibition at 0.03 μM ([1]; 0.03 μM compound, Table 3): 82%
CC(C)(C)c1ccc(C(=O)N2CCC(Nc3nc(N)c(C(=O)c4c(F)cccc4F)s3)CC2)cc1 [Example Q34]	–	–	–	–	–	–	–	–	HCT-116 % Inhibition at 0.1 μM (HCT-116 cell line; 0.1 μM compound, HCT-116, Table 4): 1%; HCT-116 % Inhibition at 0.25 μM (HCT-116 cell line; HCT-116, Table 4): 27%; CDK2 % Inhibition at 0.03 μM (CDK2/Cyclin A; 0.03 μM compound, Table 4): 28%; CDK4 % Inhibition at 0.03 μM ([1]; 0.03 μM compound, Table 4): 56%
CN1CCC(C(=O)N2CCC(Nc3nc(N)c(C(=O)c4c(F)cccc4F)s3)CC2)CC1 [Example D1, 1-(4-Amino-2-{1-[1-(1-methyl-piperidin-4-yl)-methanoyl]-piperidin-4-ylamino}-thiazol-5-yl)-1-(2,6-difluoro-phenyl)-methanone]	> 5000	–	460	130	–	–	–	–	–

Continued, in another order:

IC50 (HCT-116 cell line; first HCT-116 column (c4)) [nM]	IC50 (HCT-116 cell line; second HCT-116 column (c5)) [nM]	Ki (CDK2/Cyclin A) [nM]	Ki [1] [nM]	CDK2 % Inhibition at 0.03 μM (CDK2/Cyclin A; at 0.03 μM) [%]	CDK4 % Inhibition at 0.03 μM ([1]; at 0.03 μM) [%]	Compound	HCT-116 % Inhibition at 0.1 μM (HCT-116 cell line; HCT-116 cells, at 0.1 μM) [%]	HCT-116 5 Inhibition at 0.25 μM (HCT-116 cell line; HCT-116 cells)	other results
–	–	–	–	17	64	Cc1onc(-c2c(Cl)cccc2Cl)c1C(=O)N1CCC(Nc2nc(N)c(C(=O)c3c(F)cccc3F)s2)CC1 [Example R26]	0	46	–
–	–	–	–	41	62	N#Cc1cccc(C(=O)N2CCC(Nc3nc(N)c(C(=O)c4c(F)cccc4F)s3)CC2)c1 [Example R129]	0	33	–
44	170	1.4	1.8	–	–	CN(CCS(=O)(=O)N1CCC(Nc2nc(N)c(C(=O)c3c(F)cccc3F)s2)CC1)Cc1ccccc1 [Example K39, (4-Amino-2-{1-[2-(benzyl-methyl-amino)-ethanesulfonyl]-piperidin-4-ylamino}-thiazol-5-yl)-(2,6-difluoro-phenyl)-methanone]	–	–	–
–	–	–	–	22	15	CCn1nc(C)c(Br)c1C(=O)N1CCC(Nc2nc(N)c(C(=O)c3c(F)cccc3F)s2)CC1 [Example R68]	0	33	–
70	230	< 1	1.4	–	–	Nc1nc(NC2CCN(S(=O)(=O)c3ccc(F)cc3)CC2)sc1C(=O)c1c(F)cccc1F [Example F17, 1-{4-Amino-2-[1-(4-fluoro-benzenesulfonyl)-piperidin-4-ylamino]-thiazol-5-yl}1-(2,6-difluoro-phenyl)-methanone]	–	–	–
